Entries after “also recorded” stand apart in the source; their conditions may differ.
How the values were obtained:
[1] = system: homomultimeric (ASIC2A or ASIC3) and heteromultimeric (ASIC-2S.2) channels; assay: Proton-induced inward currents in oocytes expressing homomultimeric or heteromultimeric ASIC channels; type: cell-based; settings: human and rat ASIC2A, ASIC3 or ASIC-2S.2-expressing oocytes
Description: (§1) According to method 1 described above, nuclei of Xenopus oocytes are injected with ASIC2A and ASIC3 cDNAs separately subcloned into pcDNA3 expression vector (1-5 ng). Control oocytes are injected with H2O. Oocytes are maintained at 18° C. in modified Barth's solution. Proton-activated currents are measured by two-electrode voltage clamp 1-3 days after injection. During voltage clamp (−60 mV/−100 mV)), oocytes are bathed in 116 mM NaCl, 2 mM KCl, 1.8 mM CaCl2, 10 mM acetic acid and 5 mM Hepes (pH 7.4 with NaOH). To determine proton-gating, bath solution is quickly switched to a solution of pH<7.4 for 10 sec, then returned to bath solution for washout. The stimulating solution is prepared by lowering the pH of the original bath solution with hydrochloric acid. The osmolality of the solutions is verified with an osmometer and corrected with mannitol or choline chloride. To document ionic selectivity, NaCl is replaced with LiCl or KCl. Current-voltage relationships are determined by stepping from a holding potential of −60 mV to potentials between −100 and +60 mV for 10 seconds before and during stimulation with low pH solution. FIGS. 1A (human) and 1B (rat) compare proton-activated currents carried by homomultimeric ASIC2A and ASIC3 receptors to the heteromultimeric ASIC-2S.2 receptors (ASIC2a+3). […] Species differences are also noteworthy. Indeed, using human subunits, both the early fast and sustained currents are strongly potentiated, while in the case of rat, the major effect appears to be on the sustained current only.
As described in example 2, voltage clamped oocytes expressing the ASIC-2S.2 channels are used to screen for molecules capable of modulating, activating or inhibiting channel activity.

[2] = target: T1, human ASIC2S.2 (ASIC2A+3) receptors (Homo sapiens, UniProt Q16515+Q9UHC3, A14P/I85V/M358I/P13Q); assay: Two-electrode voltage clamp of proton-gated currents in Xenopus oocytes expressing human ASIC2S.2; type: cell-based; settings: 100 μM FMRFamide; normalised to maximal control current at pH 3
T1 construct: allowing RT-PCR amplified full length nucleic acids to be directionally subcloned into pcDNA3; expressed in transfected cells; host or cells: Xenopus laevis oocytes (nuclear injection of pcDNA3 cDNAs)
T1 sequence (Q16515 1-512): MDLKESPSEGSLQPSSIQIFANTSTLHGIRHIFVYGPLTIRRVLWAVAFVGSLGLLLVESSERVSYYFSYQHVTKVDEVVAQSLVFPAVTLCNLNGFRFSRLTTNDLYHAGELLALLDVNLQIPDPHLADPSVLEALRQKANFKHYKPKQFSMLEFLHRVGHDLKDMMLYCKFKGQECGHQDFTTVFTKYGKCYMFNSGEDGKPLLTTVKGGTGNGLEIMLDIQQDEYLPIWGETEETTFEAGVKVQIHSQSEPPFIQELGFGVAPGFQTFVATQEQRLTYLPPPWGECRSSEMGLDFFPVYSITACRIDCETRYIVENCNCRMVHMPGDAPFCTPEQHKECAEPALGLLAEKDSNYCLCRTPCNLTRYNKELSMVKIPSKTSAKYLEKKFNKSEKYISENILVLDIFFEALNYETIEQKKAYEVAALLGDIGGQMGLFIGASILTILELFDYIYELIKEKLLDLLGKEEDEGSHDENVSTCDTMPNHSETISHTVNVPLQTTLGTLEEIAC
T1 sequence (Q9UHC3 1-531 P13Q/A14P/I85V/M358I): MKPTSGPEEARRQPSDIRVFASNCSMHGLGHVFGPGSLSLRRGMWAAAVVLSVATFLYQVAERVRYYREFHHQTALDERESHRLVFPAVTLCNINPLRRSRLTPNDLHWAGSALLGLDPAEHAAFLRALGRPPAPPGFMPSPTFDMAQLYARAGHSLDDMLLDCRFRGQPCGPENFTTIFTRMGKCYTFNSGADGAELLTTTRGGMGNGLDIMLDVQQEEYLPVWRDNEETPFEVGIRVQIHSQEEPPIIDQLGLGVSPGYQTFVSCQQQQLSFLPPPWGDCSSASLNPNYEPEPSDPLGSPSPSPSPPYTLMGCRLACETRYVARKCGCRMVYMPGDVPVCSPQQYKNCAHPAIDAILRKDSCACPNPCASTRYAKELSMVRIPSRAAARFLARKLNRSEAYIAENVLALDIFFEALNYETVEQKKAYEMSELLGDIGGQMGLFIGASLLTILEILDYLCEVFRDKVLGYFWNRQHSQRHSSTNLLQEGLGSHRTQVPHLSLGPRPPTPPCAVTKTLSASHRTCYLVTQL
Description: as §1, with “Indeed, using human subunits, both the early fast and sustained currents are strongly potentiated, while in the case of rat, the major effect appears to be on the sustained current only.” left out

Row | Molecule | Effect on proton-induced inward currents [1] | Effect on proton-induced inward currents ([1]; listed as gadolinium) | Sensitivity and maximal response to acidification (pH dose-response curve) [2]
1 | N=C(N)NC(=O)c1nc(Cl)c(N)nc1N [amiloride] | inhibitory effects; also recorded: antagonistic effects |  | 
2 | [Gd+3] [gadolinium ions, gadolinium] | antagonistic effects | inhibitory effects | 
3 | FMRFamide |  |  | increased

From patent publication US7547521B2, “Heteromultimeric ion channel receptor and uses thereof” (McGill University, priority 2000, dated 2009)
